This note sets out measurements from patent USRE32519E, “Sulfur-containing isoquinoline derivatives, process for the preparation thereof and pharmaceutical compositions containing them” (Chinoin Gyogyszer es Vegyeszeti Termekek Gyara, priority 1979, dated 1987).

Counter-ions that a name gives are not always drawn. Like-named read-outs stand apart in the source and are kept apart here.

For one data set, the target named is T1, cyclic oxygenase (Ovis aries, UniProt P05979).
T1 construct: As an enzyme source a homogenizate of sheep spermatocele; from tissue; host or cells: homogenate of sheep 'spermatocele' (read as seminal vesicle)
T1 sequence (P05979 25-600): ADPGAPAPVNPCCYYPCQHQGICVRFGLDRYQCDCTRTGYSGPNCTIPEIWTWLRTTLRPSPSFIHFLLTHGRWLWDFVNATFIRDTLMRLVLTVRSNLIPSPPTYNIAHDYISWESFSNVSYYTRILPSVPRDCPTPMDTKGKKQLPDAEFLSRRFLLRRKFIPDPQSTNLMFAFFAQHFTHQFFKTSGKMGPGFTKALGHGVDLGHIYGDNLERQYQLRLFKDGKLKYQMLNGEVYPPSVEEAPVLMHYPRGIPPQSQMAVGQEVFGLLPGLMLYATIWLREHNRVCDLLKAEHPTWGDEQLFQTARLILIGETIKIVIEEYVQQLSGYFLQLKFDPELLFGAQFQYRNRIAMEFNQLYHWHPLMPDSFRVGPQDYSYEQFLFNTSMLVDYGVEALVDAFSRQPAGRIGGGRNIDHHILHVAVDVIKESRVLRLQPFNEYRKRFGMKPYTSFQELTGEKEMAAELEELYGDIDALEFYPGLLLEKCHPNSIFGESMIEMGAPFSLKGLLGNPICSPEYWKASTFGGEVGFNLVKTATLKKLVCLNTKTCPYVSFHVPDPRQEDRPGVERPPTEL
Kind of data set: effect on biosynthesis of prostaglandins: activity of cyclic oxygenase, oxygen consumption with arachidonic acid substrate (Clark electrode). Type of data set: biochemical, sheep. Particulars: for AC50: concentration for 50% increase in oxygen consumption; for EC (100% increase): concentration for 100% increase in oxygen consumption, read-out: AC100%. The procedure: The effect of the compounds of the formula (I) on the biosynthesis of prostaglandins was determined by a known technique (J. Biol. Chem., 246, 6700; 1971). As an enzyme source a homogenizate of sheep spermatocele and as a substrate arachidonic acid were used. The transformation of the substrate, which involves oxygen consumption, was monitored on the basis of the change of the concentration of dissolved oxygen, which was measured by a Clark electrode. During the measurements the concentration of the active compounds, which involved a 50% and 100%, respectively, […] in the oxygen consumption were determined. The concentrations were expressed in μM/lit. The results obtained are contained in the Table below. |The effect of the compounds of the formula |(I) on the activity of cyclic oxygenase |Substrate: arachidonic acid

A further data set concerns paw oedema. The data set can be described thus: antiinflammatory activity, carrageenien-induced paw oedema on rats. It counts as in vivo. As to the method:
The diuretic activity of the compounds of the formula (I) was tested on rats. The quantity of the urine passed in 4 hours and of the discharged Na^+ and K^+ ions were determined by known methods (Arzneimitt. Forsch. 27, 559; 1978). The antiinflammatory activity was tested in paw oedema on rats. The oedema was induced by […] inhibition was expressed in %.

Data set [1] in a line: acute toxicity (LD50) on mice. Particulars: mouse, in vivo, po.
Data set [2] relates to isolated trachea of guinea pigs. Kind of data set: relaxant activity on isolated trachea of guinea pigs. To be noted: for relaxant effect relative to theophylline: 1 μg/ml. dose; for relaxant activity relative to theophylline: related to a 95 to 100% relaxation. The procedure: According to a test carried out on isolated trachea of guinea pigs (J. Pharm. Pharmac. 31, 798; 1979) the compounds prepared according to the invention have a relaxant activity. […] The activity of the compounds obtained in Example 4 is significant also at a dose of 0.1 μg/ml.

A further data set deals with acetylcholine. Kind of data set: antagonistic activity against acetylcholine on ileum of guinea pigs.
For the next data set, the system named is histamine. Kind of data set: antagonistic activity against histamine on ileum of guinea pigs. To be noted: for effect against histamine relative to theophylline: 50 μg/ml. antagonistic dose.
In a further data set the test system is serotonine. Kind of data set: serotonine antagonistic effect on gastric fundus strip of rats. Particulars: 10 μg/ml. antagonistic dose.
Data set [3] is described as follows: diuretic activity on rats, quantity of urine passed in 4 hours. It counts as in vivo. Particulars: 2 mg/kg. dose, compared with 2 mg/kg. p.o. Hypothiazid. As to the method:
The diuretic activity of the compounds of the formula (I) was tested on rats. The quantity of the urine passed in 4 hours and of the discharged Na^+ and K^+ ions were determined by known methods (Arzneimitt. Forsch. 27, 559; 1978). The antiinflammatory activity was tested in paw oedema on rats. The oedema was induced by carrageenien and the inhibition was expressed in %.

For orientation: AC50 means the midpoint of the concentration-response curve, whichever way the signal moves. Low values mean activity at low concentration, high ones activity only at high concentration. With `COc1cc2c(cc1OC)C(C(C#N)SCCO)=NCC2` (stereo not drawn) [Example 3, α-(2-hydroxy-ethylmercapto)-6,7-dimethoxy-3,4-dihydro-1-isoquinolyl-acetonitrile], on cyclic oxygenase, half-maximal activity (AC50) was put at 100 µM and the EC (100% increase) came to 200 µM. The “inhibition in paw oedema test” value with paw oedema (100 mg/kg dose, rats (route not given)) amounted to 20%. Besides, the LD50 in data set [1] (per os on mice, read-out: DL) was greater than 500 mg/kg.
Regarding `COc1cc2c(cc1OC)C(C(C#N)SCCCO)=NCC2` (stereo not drawn) [Example 4, α-(3-hydroxy-propylmercapto)-6,7-dimethoxy-3,4-dihydro-1-isoquinolyl-acetonitrile], on cyclic oxygenase, the AC50 turned out to be 70 µM and the EC (100% increase) is 140 µM. The “inhibition in paw oedema test” value in the data set on paw oedema (100 mg/kg. p.o. dose, rats) came out at 20%. Also, in data set [2], the “relaxant effect relative to theophylline” value was “five-times more effective than theophylline” and the “relaxant activity relative to theophylline” value is given as “five-times higher activity than theophylline”. Besides, the relaxant activity result in data set [2] (dose of 0.1 μg/ml.) is “significant”. Besides, in the data set with acetylcholine (50 μg/ml. antagonistic dose), the “activity against acetylcholine relative to theophylline” value is listed as “six-times more active”. Moreover, the “maximum inhibition (acetylcholine)” value with acetylcholine (in a dose of 50 μg/ml.) turned out to be 100%. Further, in the data set on histamine (50 μg/ml.), the “maximum inhibition (histamine)” value is 100%. In the data set on histamine, the “effect against histamine relative to theophylline” value is listed as “six-times more potent”. For the same compound, in the data set on serotonine, the “inhibition (serotonine antagonistic effect)” value is reported as 80%. Moreover, the LD50 in data set [1] (p.o. on mice, read-out: LD50) was greater than 500 mg/kg.
Regarding `N#CC(SCC(=O)O)C1=NCCc2ccccc21` (stereo not drawn) [Example 5, α-carboxy-methyl-mercapto-3,4-dihydro-isoquinolyl-acetonitrile], on cyclic oxygenase, the AC50 was found to be 40 µM and the EC (100% increase) was 80 µM.
For `COc1cc2c(cc1OC)C(C(C#N)SCC(=O)O)=NCC2` (stereo not drawn) [Example 6, α-carboxymethylmercapto-6,7-dimethoxy-3,4-l-dihydro-1-isoquinolyl-acetonitrile], on cyclic oxygenase, the AC50 worked out at 60 µM and the EC (100% increase) was determined as 225 µM. The “increase of the quantity of the urine secreted” value in data set [3] is given as “to the same extent as a 2 mg/kg. p.o. dose of Hypothiazid”. Further, in the data set on serotonine, the “inhibition (serotonine antagonistic effect)” value amounted to 16%. The LD50 in data set [1] (p.o. on mice, read-out: LD50) is greater than 500 mg/kg.
For the compound `N#CC(SCCC(=O)O)C1=NCCc2ccccc21` (stereo not drawn) [Example 8, α-(2-carboxyethyl)-mercapto-3,4-dihydro-1-isoquinolyl-acetonitrile], on cyclic oxygenase, half-maximal activity (AC50) was put at 48 µM and the EC (100% increase) turned out to be 96 µM. For the same compound, the “inhibition (serotonine antagonistic effect)” value in the data set with serotonine is given as 8%.
Compound `COc1cc2c(cc1OC)C(C(C#N)SCCC(=O)O)=NCC2` (centres unmarked) [Example 9] had a half-maximal activity concentration (AC50) at cyclic oxygenase of 95 µM. The “increase of the quantity of the urine secreted” value in data set [3] is on record as “to the same extent as a 2 mg/kg. p.o. dose of Hypothiazid”. Further, in data set [2], the “relaxant effect relative to theophylline” value was “only half of its effect” and the “relaxant activity relative to theophylline” value is recorded as “the same activity as theophylline”. Further, the “activity against acetylcholine relative to theophylline” value in the data set on acetylcholine (50 μg/ml. antagonistic dose) is listed as “the same activity”. For the same compound, in the data set with acetylcholine (in a dose of 100 μg/ml.), the “maximum inhibition (acetylcholine)” value is on record as 55%. In addition, the “effect against histamine relative to theophylline” value in the data set on histamine was “the same effect as theophylline”. Besides, the “maximum inhibition (histamine)” value in the data set with histamine (100 μg/ml.) is 26%. The LD50 in data set [1] (p.o. on mice, read-out: LD50) was greater than 500 mg/kg.
In turn, `COc1cc2c(cc1OC)C(C(C#N)SC(C)C(=O)O)=NCC2` (stereo not drawn) [Example 12, α-(1-carboxy-1-ethyl)-mercapto-6,7-dimethoxy-3,4-dihydro-1-isoquinolyl-acetonitrile] yielded an AC50 at cyclic oxygenase of 105 µM.
`CCN(CC)CCSC(C#N)C1=NCCc2cc(OC)c(OC)cc21` (stereo not drawn) [Example 14, α-(2-diethylaminoethyl)-mercapto-6,7-dimethoxy-3,4-dihydro-1-isoquinolyl-acetonitrile hydrochloride]: at cyclic oxygenase, the AC50 stood at 280 µM and the EC (100% increase) stood at 395 µM.
In the same order, the values of `COc1cc2c(cc1OC)C(C(C#N)SCCN(C)C)=NCC2` (stereo not drawn) [Example 15, α-(2-dimethylaminoethyl)-mercapto-6,7-dimethoxy-3,4-dihydro-1-isoquinolyl-acetonitrile hydrochloride] are 62 µM and 124 µM.
The matching figures for `CCOC(=O)CSC(C#N)C1=NCCc2cc(OC)c(OC)cc21` (stereo not drawn) [Example 18, α(ethoxycarbonyl)-methyl-mercapto-6,7-dimethoxy-3,4dihydro-1-isoquinolyl-acetonitrile]: 69 µM and 138 µM.
The matching figures for `COc1cc2c(cc1OC)C(C(C#N)SCC(=O)NN)=NCC2` (stereo not drawn) [Example 22, α-(carbohydrazidomethyl)-mercapto-6,7-dimethoxy-3,4-dihydro-1-isoquinolyl-acetonitrile]: 720 µM and 1800 µM.
The compound `Cn1c(=O)c2[nH]cnc2n(C)c1=O` [theophylline, reference compound] yielded an inhibition against acetylcholine in the data set with acetylcholine (50 μg/ml. antagonistic dose) of 16%. Moreover, in the data set with acetylcholine (at a dose of 200 μg/ml.), the “maximum inhibition (acetylcholine)” value turned out to be 30%. In addition, in the data set on serotonine, the “inhibition (serotonine antagonistic effect)” value was 8%.
